{"source": "the supplement of paper PMC10307832"}
{"compound": "C[C@@]1(C(=O)Nc2ccc(F)nc2)CCCN1c1nc(Nc2cc(C3CC3)n[nH]2)c2cccn2n1 + O=C(CCCCCCC(=O)Nc1ccccc1)NO [Vorinostat] (partner 1 µM)", "assay": "relative viability (nuclei count vs DMSO), 5 days (fraction); higher = more cells survive", "conditions": "first compound 1.265 µM", "procedure,_shortened": "(§1)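 Lung cancer cell lines in 1536-well plates got either a single drug or a fixed anchor-drug dose together with five library-drug doses (not always all listed) in √10 steps, by pin tool, on the day after seeding. Nuclei were counted after 5 days, and relative viability is the treated-to-vehicle ratio of nuclei counts. Values are medians of duplicate plates.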"}
{"cell line": "HCC-827", "relative viability": 0.823}
{"cell line": "LXF-289", "relative viability": 0.792}
{"cell line": "NCI-H23", "relative viability": 0.178}
{"cell line": "NCI-H647", "relative viability": 0.289}
{"cell line": "CAL-12T", "relative viability": 0.33}
{"cell line": "NCI-H1651", "relative viability": 0.448}
{"cell line": "EPLC-272H", "relative viability": 0.406}
{"cell line": "NCI-H2228", "relative viability": 0.298}
{"cell line": "NCI-H1355", "relative viability": 0.505}
{"cell line": "NCI-H3122", "relative viability": 0.879}
{"cell line": "NCI-H1437", "relative viability": 0.433}
{"cell line": "NCI-H1755", "relative viability": 0.726}
{"cell line": "NCI-H2023", "relative viability": 0.127}
{"cell line": "HCC-15", "relative viability": 0.774}
{"cell line": "PC-14", "relative viability": 0.204}
{"cell line": "EKVX", "relative viability": 0.684}
{"cell line": "LC-2-ad", "relative viability": 0.186}
{"cell line": "NCI-H1975", "relative viability": 0.316}
{"cell line": "RERF-LC-KJ", "relative viability": 0.467}
{"compound": "C[C@@]1(C(=O)Nc2ccc(F)nc2)CCCN1c1nc(Nc2cc(C3CC3)n[nH]2)c2cccn2n1 + Cc1nc(Nc2ncc(C(=O)Nc3c(C)cccc3Cl)s2)cc(N2CCN(CCO)CC2)n1 [Dasatinib] (partner 0.075 µM)", "assay": "relative viability (nuclei count vs DMSO), 5 days (fraction); higher = more cells survive", "conditions": "first compound 0.04 µM", "procedure,_shortened": "as §1"}
{"cell line": "ChaGo-K-1", "relative viability": 0.505}
{"cell line": "NCI-H2405", "relative viability": 0.211}
{"cell line": "HOP-62", "relative viability": 0.662}
{"cell line": "LU99A", "relative viability": 0.409}
{"cell line": "BEN", "relative viability": 0.32}
{"cell line": "HARA", "relative viability": 0.297}
{"cell line": "HCC-78", "relative viability": 0.421}
{"cell line": "NCI-H322M", "relative viability": 0.239}
{"cell line": "LCLC-97TM1", "relative viability": 0.54}
{"cell line": "NCI-H2009", "relative viability": 0.279}
{"cell line": "A-427", "relative viability": 0.632}
{"cell line": "NCI-H441", "relative viability": 0.385}
{"cell line": "NCI-H661", "relative viability": 0.762}
{"cell line": "NCI-H1734", "relative viability": 0.345}
{"cell line": "NCI-H460", "relative viability": 0.258}
{"cell line": "NCI-H2347", "relative viability": 0.289}
{"cell line": "SK-LU-1", "relative viability": 0.116}
{"cell line": "201T", "relative viability": 0.326}
{"cell line": "NCI-H1915", "relative viability": 0.302}
{"cell line": "HCC-827", "relative viability": 0.34}
{"cell line": "LXF-289", "relative viability": 0.13}
{"cell line": "NCI-H23", "relative viability": 0.653}
{"cell line": "NCI-H647", "relative viability": 0.361}
{"cell line": "CAL-12T", "relative viability": 0.239}
{"cell line": "NCI-H1651", "relative viability": 0.309}
{"cell line": "EPLC-272H", "relative viability": 0.275}
{"cell line": "NCI-H2228", "relative viability": 0.414}
{"cell line": "NCI-H1355", "relative viability": 0.545}
{"cell line": "NCI-H3122", "relative viability": 0.581}
{"cell line": "NCI-H1437", "relative viability": 0.218}
{"cell line": "NCI-H1755", "relative viability": 0.29}
{"cell line": "NCI-H2023", "relative viability": 0.407}
{"cell line": "HCC-15", "relative viability": 0.458}
{"cell line": "PC-14", "relative viability": 0.281}
{"cell line": "EKVX", "relative viability": 0.439}
{"cell line": "LC-2-ad", "relative viability": 0.363}
{"cell line": "NCI-H1975", "relative viability": 0.263}
{"cell line": "RERF-LC-KJ", "relative viability": 0.577}
{"compound": "C[C@@]1(C(=O)Nc2ccc(F)nc2)CCCN1c1nc(Nc2cc(C3CC3)n[nH]2)c2cccn2n1 + Cc1nc(Nc2ncc(C(=O)Nc3c(C)cccc3Cl)s2)cc(N2CCN(CCO)CC2)n1 [Dasatinib] (partner 0.075 µM)", "assay": "relative viability (nuclei count vs DMSO), 5 days (fraction); higher = more cells survive", "conditions": "first compound 0.1265 µM", "procedure,_shortened": "as §1"}
{"cell line": "ChaGo-K-1", "relative viability": 0.486}
{"cell line": "NCI-H2405", "relative viability": 0.177}
{"cell line": "HOP-62", "relative viability": 0.565}
{"cell line": "LU99A", "relative viability": 0.257}
{"cell line": "BEN", "relative viability": 0.382}
{"cell line": "HARA", "relative viability": 0.203}
{"cell line": "HCC-78", "relative viability": 0.269}
{"cell line": "NCI-H322M", "relative viability": 0.197}
{"cell line": "LCLC-97TM1", "relative viability": 0.224}
{"cell line": "NCI-H2009", "relative viability": 0.224}
{"cell line": "A-427", "relative viability": 0.557}
{"cell line": "NCI-H441", "relative viability": 0.155}
{"cell line": "NCI-H661", "relative viability": 0.841}
{"cell line": "NCI-H1734", "relative viability": 0.296}
{"cell line": "NCI-H460", "relative viability": 0.101}
{"cell line": "NCI-H2347", "relative viability": 0.288}
{"cell line": "SK-LU-1", "relative viability": 0.112}
{"cell line": "201T", "relative viability": 0.29}
{"cell line": "NCI-H1915", "relative viability": 0.3}
{"cell line": "HCC-827", "relative viability": 0.395}
{"cell line": "LXF-289", "relative viability": 0.119}
{"cell line": "NCI-H23", "relative viability": 0.384}
{"cell line": "NCI-H647", "relative viability": 0.0884}
{"cell line": "CAL-12T", "relative viability": 0.146}
{"cell line": "NCI-H1651", "relative viability": 0.33}
{"cell line": "NCI-H2228", "relative viability": 0.278}
{"cell line": "NCI-H1355", "relative viability": 0.488}
{"cell line": "NCI-H3122", "relative viability": 0.786}
{"cell line": "NCI-H1437", "relative viability": 0.236}
{"cell line": "NCI-H1755", "relative viability": 0.262}
{"cell line": "NCI-H2023", "relative viability": 0.165}
{"cell line": "HCC-15", "relative viability": 0.233}
{"cell line": "PC-14", "relative viability": 0.0303}
{"cell line": "EKVX", "relative viability": 0.4}
{"cell line": "LC-2-ad", "relative viability": 0.328}
{"cell line": "NCI-H1975", "relative viability": 0.306}
{"cell line": "RERF-LC-KJ", "relative viability": 0.436}
{"compound": "C[C@@]1(C(=O)Nc2ccc(F)nc2)CCCN1c1nc(Nc2cc(C3CC3)n[nH]2)c2cccn2n1 + Cc1nc(Nc2ncc(C(=O)Nc3c(C)cccc3Cl)s2)cc(N2CCN(CCO)CC2)n1 [Dasatinib] (partner 0.075 µM)", "assay": "relative viability (nuclei count vs DMSO), 5 days (fraction); higher = more cells survive", "conditions": "first compound 0.4 µM", "procedure,_shortened": "as §1"}
{"cell line": "ChaGo-K-1", "relative viability": 0.522}
{"cell line": "NCI-H2405", "relative viability": 0.185}
{"cell line": "HOP-62", "relative viability": 0.469}
{"cell line": "LU99A", "relative viability": 0.219}
{"cell line": "BEN", "relative viability": 0.329}
{"cell line": "HARA", "relative viability": 0.188}
{"cell line": "HCC-78", "relative viability": 0.256}
{"cell line": "NCI-H322M", "relative viability": 0.241}
{"cell line": "LCLC-97TM1", "relative viability": 0.229}
{"cell line": "NCI-H2009", "relative viability": 0.166}
{"cell line": "A-427", "relative viability": 0.617}
{"cell line": "NCI-H441", "relative viability": 0.223}
{"cell line": "NCI-H661", "relative viability": 0.669}
{"cell line": "NCI-H1734", "relative viability": 0.29}
{"cell line": "NCI-H460", "relative viability": 0.0641}
{"cell line": "NCI-H2347", "relative viability": 0.343}
{"cell line": "SK-LU-1", "relative viability": 0.0979}
{"cell line": "201T", "relative viability": 0.301}
{"cell line": "NCI-H1915", "relative viability": 0.288}
{"cell line": "HCC-827", "relative viability": 0.222}
{"cell line": "LXF-289", "relative viability": 0.0865}
{"cell line": "NCI-H23", "relative viability": 0.325}
{"cell line": "NCI-H647", "relative viability": 0.105}
{"cell line": "CAL-12T", "relative viability": 0.101}
{"cell line": "NCI-H1651", "relative viability": 0.185}
{"cell line": "EPLC-272H", "relative viability": 0.157}
{"cell line": "NCI-H2228", "relative viability": 0.22}
{"cell line": "NCI-H1355", "relative viability": 0.434}
{"cell line": "NCI-H3122", "relative viability": 0.348}
{"cell line": "NCI-H1437", "relative viability": 0.223}
{"cell line": "NCI-H1755", "relative viability": 0.241}
{"cell line": "NCI-H2023", "relative viability": 0.154}
{"cell line": "HCC-15", "relative viability": 0.271}
{"cell line": "PC-14", "relative viability": 0.0906}
{"cell line": "EKVX", "relative viability": 0.32}
{"cell line": "LC-2-ad", "relative viability": 0.235}
{"cell line": "NCI-H1975", "relative viability": 0.181}
{"cell line": "RERF-LC-KJ", "relative viability": 0.42}
{"compound": "C[C@@]1(C(=O)Nc2ccc(F)nc2)CCCN1c1nc(Nc2cc(C3CC3)n[nH]2)c2cccn2n1 + Cc1nc(Nc2ncc(C(=O)Nc3c(C)cccc3Cl)s2)cc(N2CCN(CCO)CC2)n1 [Dasatinib] (partner 0.075 µM)", "assay": "relative viability (nuclei count vs DMSO), 5 days (fraction); higher = more cells survive", "conditions": "first compound 1.265 µM", "procedure,_shortened": "as §1"}
{"cell line": "ChaGo-K-1", "relative viability": 0.443}
{"cell line": "NCI-H2405", "relative viability": 0.186}
{"cell line": "HOP-62", "relative viability": 0.374}
{"cell line": "LU99A", "relative viability": 0.197}
{"cell line": "BEN", "relative viability": 0.271}
{"cell line": "HARA", "relative viability": 0.163}
{"cell line": "HCC-78", "relative viability": 0.184}
{"cell line": "NCI-H322M", "relative viability": 0.225}
{"cell line": "LCLC-97TM1", "relative viability": 0.134}
{"cell line": "NCI-H2009", "relative viability": 0.154}
{"cell line": "A-427", "relative viability": 0.453}
{"cell line": "NCI-H441", "relative viability": 0.203}
{"cell line": "NCI-H661", "relative viability": 0.517}
{"cell line": "NCI-H1734", "relative viability": 0.185}
{"cell line": "NCI-H460", "relative viability": 0.0353}
{"cell line": "NCI-H2347", "relative viability": 0.189}
{"cell line": "SK-LU-1", "relative viability": 0.0968}
{"cell line": "201T", "relative viability": 0.324}
{"cell line": "NCI-H1915", "relative viability": 0.268}
{"cell line": "HCC-827", "relative viability": 0.339}
{"cell line": "LXF-289", "relative viability": 0.0646}
{"cell line": "NCI-H23", "relative viability": 0.269}
{"cell line": "NCI-H647", "relative viability": 0.214}
{"cell line": "CAL-12T", "relative viability": 0.0918}
{"cell line": "NCI-H1651", "relative viability": 0.231}
{"cell line": "EPLC-272H", "relative viability": 0.084}
{"cell line": "NCI-H2228", "relative viability": 0.208}
{"cell line": "NCI-H1355", "relative viability": 0.421}
{"cell line": "NCI-H3122", "relative viability": 0.677}
